The values that follow come from US6331555A, “Treatment of platelet derived growth factor related disorders such as cancers” (priority 1999, dated 2001).

One experiment relates to T98G cells. The experiment is described as follows: PDGF-stimulated DNA synthesis, T98G cells (3H-thymidine). Conditions: 50 ng/ml PDGF-BB. The class given is cell-based, human. The method, then:
T98G cells in log phase growth were transferred to 96-well dishes at 20,000 cells in 200 μL of serum-containing growth medium. After an overnight attachment period, the monolayers were washed twice with 200 μL MCDB 105 medium and the cells were cultured in 200 μL serum-free MCDB 105 medium for 24 hr. […] The plates were incubated at 37° C. at ambient CO2 for approximately 18 hr. ^3 H-thymidine (Amersham, 5 Ci/mmol) was added to each well to yield a final concentration of 5 μCi/mL and the plates were returned to 37° C. incubator. After 4 hr the medium was removed, the plates were put onto ice, and washed twice with 200 μL ice-cold PBS per well. Radioactivity incorporated into DNA was separated from unincorporated ^3 H-thymidine by precipitation with 100 μL ice-cold TCA for 10 min on ice. […] Six mL of cocktail (Ready Safe, Beckman) was added and radioactivity quantified in a Beckman liquid scintillation counter model LS6000SC. […]
The effect on basal ^3 H-thymidine incorporation was determined in the absence of PDGF. […] Radioactivity incorporated into DNA was separated from unincorporated ^3 H-thymidine by precipitation with […] ice-cold TCA for 10 minutes. […] Six ml of cocktail (Ready Safe, Beckman) was added and radioactivity quantified in a Beckman liquid scintillation counter model LS6000 SC.

The subject of the next experiment is spleen cells. Kind of experiment: Normal immune function in mice responding to a primary immunization. The class given is in vivo, mouse. Conditions: 20 mg/kg/day. The source says:
At the indicated times, animals were sacrificed, and the spleens were aseptically removed and placed into sterile medium. Spleens were processed into single cell suspensions by grinding between sterile frosted glass microscope slides. After a single wash to remove tissue debris, the spleen cells were resuspended in a hypotonic ammonium chloride buffer to lyse erythrocytes. Lymphocytes were washed and resuspended to the appropriate concentrations in complete medium, consisting of RPMI plus 10% heat-inactivated FBS, 2 mM glutamine, 50 μM β-mercaptoethanol, and penicillin-streptomycin. The responses of the lymphocytes were examined in the following assays according to accepted procedures (Current Protocols in Immunology. Coligan, J. E., Kruisbeek, A. M., Margulies, D. H., Shevach, E. M., Strober, W. (eds.) John Wiley and Sons, Inc., 1992).
The T-cell mitogen, ConA, and the T-cell independent B-cell mitogen, LPS, were added to 96-well round-bottom wells at the indicated concentrations. Lymphocytes from normal, vehicle-dosed, and drug-dosed animals were added at a final concentration of 2.5×10^5 /well. Cultures were usually set up in triplicate or quadruplicate. The plates were incubated at 37° C. in a humidified atmosphere containing 5% CO2 for the indicated times. Supernatants (approximately 100 μL) were carefully removed from the wells and stored at -80° C. for lymphokine and immunoglobulin analyses. To measure proliferation of the lymphocytes, 1 μCi of ^3 H-thymidine was added to each well, and the plates were incubated for 6 hr. The cultures were harvested onto glass fiber filters, and the incorporated radioactivity was quantitated by liquid scintillation counting (Betaplate, Wallac).
Lymphocytes from normal, vehicle-dosed, and drug-dosed animals were plated at 2.5×10^5 /well in round-bottom 96-well plates. Stimulator cells were then added at the same cell concentration. […] The plates were incubated for 3 to 4 days, at which time supernatants were harvested and the cultures were pulsed as described for the mitogen assays.
Supernatants from mitogen and MLR cultures were assayed for IL-2 and IL-6 content by the ability to support the growth of factor-dependent cell lines. HT-2 cells (10^4 /well, IL-2-dependent) and 7TD1 cells (2×10^3 /well, IL-6-dependent) were plated in 96-well flat-bottom plates, in 50 μL/well. Supernatants were added in 50 μL/well, and the plates were incubated overnight (HT-2) or four days (7TD1). Cellular proliferation was determined in the MTT colorimetric assay (Appendix 3.1).
Flat bottom 96-well EIA plates were coated with goat anti-mouse Ig antibodies (Southern Biotechnology) overnight at 4° C. The plates were blocked by the addition of PBS+1% BSA. After washing with PBS, supernatants from murine mitogen and MLR cultures were added and incubated at room temperature for 1 hr. The plates were washed with PBS, then HRP-labeled goat anti-mouse Ig antibodies were added and incubated at room temperature for 1 hr. The plates were washed and developed by the addition of substrate (ABTS).
BALB/c mice were immunized SC with 50 μg keyhole limpet hemocyanin (KLH) suspended in complete Freund's adjuvant (CFA); control mice were mock-immunized with an emulsion of phosphate-buffered saline (PBS) in CFA. […] On day 14, all mice were sacrificed, and their spleen cells were assayed. In addition , immune e responses to KLH and tetanus toxoid were measured as described in Appendix 5.

Take `Cc1oncc1C(=O)Nc1ccc(C(F)(F)F)cc1` [Compound A10, 5-methylisoxazole-4 carboxylic acid-(4-trifluromethyl)-anilide]: in the experiment on T98G cells, the “PDGF-stimulated DNA synthesis” value is given as “decreased PDGF-stimulated DNA synthesis in both types of cells, however a greater effect was seen in human T98G glioblastoma cells”. The IL-2 production with spleen cells (Allo), with spleen cells (ConA), in the experiment with spleen cells (KLH) and in the experiment on spleen cells (LPS) was 0 each time. The IL-6 production with spleen cells (Allo), with spleen cells (ConA), in the experiment on spleen cells (KLH) and with spleen cells (LPS) was 0 each time. Further, the Ig production in the experiment on spleen cells (Allo), in the experiment with spleen cells (ConA), in the experiment on spleen cells (KLH) and in the experiment on spleen cells (LPS) was 0 each time.
